{
  "source": "ChEMBL document CHEMBL1150074",
  "about": "“Cytotoxic aromatic triterpenes from Maytenus ilicifolia and Maytenus chuchuhuasca” (J Nat Prod, 1994)",
  "assay_type_in_all_cases": "functional, cell-based",
  "key": {"P388": {"test_system": "P388", "test": "Cytotoxicity against mouse P388 cells by MTT assay"}, "KB": {"test_system": "KB", "test": "Cytotoxicity against human KB cells by MTT assay"}, "L1210": {"test_system": "L1210", "test": "Cytotoxicity against mouse L1210 cells by MTT assay"}},
  "data": [
    {"smiles": "COC(=O)[C@]1(C)CC[C@]2(C)CC[C@]3(C)C4=CC=C5C(=CC(=O)C(O)=C5C)[C@]4(C)CC[C@@]3(C)[C@@H]2C1", "note": "[PRISTIMERIN]", "values": [
      {"measurement": "IC50", "setting": "P388", "result": 0.12, "unit": "µg/mL"},
      {"measurement": "IC50", "setting": "KB", "result": 0.55, "unit": "µg/mL"},
      {"measurement": "IC50", "setting": "L1210", "result": 0.36, "unit": "µg/mL"}
    ]},
    {"smiles": "COc1c(O)cc2c(c1C)C(=O)C=C1[C@@]2(C)CC[C@]2(C)[C@@H]3C[C@@H](C)C(=O)C[C@]3(C)CC[C@]12C", "values": [
      {"measurement": "IC50", "setting": "P388", "result": "> 100", "unit": "µg/mL"},
      {"measurement": "IC50", "setting": "KB", "result": 11, "unit": "µg/mL"},
      {"measurement": "IC50", "setting": "L1210", "result": "> 100", "unit": "µg/mL"}
    ]},
    {"smiles": "CC1=C(O)C(=O)C=C2C1=CC=C1[C@@]2(C)CC[C@@]2(C)[C@@H]3C[C@@H](C)C(=O)C[C@]3(C)CC[C@]12C", "note": "[TINGENONE]", "values": [
      {"measurement": "IC50", "setting": "P388", "result": 0.041, "unit": "µg/mL"},
      {"measurement": "IC50", "setting": "KB", "result": 0.28, "unit": "µg/mL"},
      {"measurement": "IC50", "setting": "L1210", "result": 0.14, "unit": "µg/mL"}
    ]},
    {"smiles": "CC1=C(O)C(=O)C=C2C1=CC=C1[C@@]2(C)CC[C@@]2(C)[C@@H]3C[C@@H](C)C(=O)[C@@H](O)[C@]3(C)CC[C@]12C", "note": "[TINGENIN B]", "values": [
      {"measurement": "IC50", "setting": "P388", "result": 0.012, "unit": "µg/mL"}
    ]},
    {"smiles": "COc1c(O)cc2c(c1CO)C(=O)C=C1[C@@]2(C)CC[C@]2(C)[C@@H]3C[C@@H](C)C(=O)[C@@H](O)[C@]3(C)CC[C@]12C", "values": [
      {"measurement": "IC50", "setting": "P388", "result": 4.3, "unit": "µg/mL"}
    ]},
    {"smiles": "COC(=O)[C@]1(C)CC[C@]2(C)CC[C@]3(C)C4=CC(=O)c5c(cc(O)c(O)c5C)[C@]4(C)CC[C@@]3(C)[C@@H]2C1", "values": [
      {"measurement": "IC50", "setting": "P388", "result": 1.5, "unit": "µg/mL"},
      {"measurement": "IC50", "setting": "KB", "result": 2.8, "unit": "µg/mL"},
      {"measurement": "IC50", "setting": "L1210", "result": 2.8, "unit": "µg/mL"}
    ]},
    {"smiles": "Cc1c(O)c(O)cc2c1C(=O)C=C1[C@@]2(C)CC[C@@]2(C)[C@@H]3C[C@@H](C)C(=O)C[C@]3(C)CC[C@]12C", "note": "[6-OXOTINGENOL]", "values": [
      {"measurement": "IC50", "setting": "P388", "result": 2.6, "unit": "µg/mL"},
      {"measurement": "IC50", "setting": "KB", "result": 30, "unit": "µg/mL"},
      {"measurement": "IC50", "setting": "L1210", "result": 6, "unit": "µg/mL"}
    ]}
  ]
}
